In US10080777B2, “Syndecan peptides and polypeptides and uses thereof” (WISCONSIN ALUMNI RESEARCH FOUNDATION, priority 2012, dated 2018):
“Also recorded” adds a separate entry of the source. Values belong to the molecule of their own block, whether it stands above or below them. Ends that are not written are not given here.

Legend:
[1] = test system: human HaCat keratinocytes or MCF10A mammary epithelial cells; assay: Competition of GST-fusion proteins or synthetic peptides in EGF-stimulated scratch wound migration (FIG. 8 summary); type: cell-based; details: for competitive activity: FIGS. 8A-C
Procedure: FIGS. 8A-C. […] GST-fusion proteins or synthetic peptides were added at concentrations ranging from 0.1 to 30 μM to the culture medium of human HaCat keratinocytes or MCF10A mammary epithelial cells in the presence or absence of 20 ng/ml EGF. The ability of the constructs to inhibit the migration of the cells to close a scratch wound in confluent monolayers was determined and express as the concentration of inhibitor necessary to cause 50% inhibition of cell migration. (FIG. 8A) Competition using recombinant GST-fusion proteins. GST-Sdc4 fusion proteins bearing truncations or mutations were assessed for their competitive activity. […] (FIG. 8B) Schematic representation of the active site in Sdc4. The active site is shown as a juxtamembrane site in the ectodomain of Sdc4. TM is the transmembrane domain and CYTO is the cytoplasmic domain. The sequence of a peptide derived from this site ([…]) (SEQ ID NO: 4) is shown along with its homology across other mammalian Sdc4 species (SEQ ID NO: 12) and its homology to Sdc4 derived from zebrafish (SEQ ID NO: 13), identifying highly conserved amino acids at the extreme N- and C-terminus of the peptide. (FIG. 8C) Competition with synthetic peptides. Peptides were purchased from commercial sources for testing as a putative synstatin inhibitory peptide ([…]). Mutation of isoleucine at position 89 to alanine (I89A), or mutation of amino acids 99-108 to alanine (99-108A) reduce the activity by 10-fold. Truncation of amino acids 126-131 at the C-terminus (4126-131) reduces the activity by at least 100-fold.
Wound healing assay. HaCat or MCF10A cells grown to confluence on 48 well-plates were starved for 6 hr by serum deprivation followed by introduction of a scratch wound in the monolayer using 200 μl pipette tip. […] Images were acquired using a PlanApo 20 (0.75 numerical aperture) objective and a Photometrics CoolSnap ES camera on a Nikon Eclipse TE2000U microscopy system and wound closure quantified.

[2] = test system: HaCat keratinocytes; assay: EGF-stimulated scratch wound closure (chemotactic migration) of HaCat keratinocytes; type: cell-based, human; details: EGF 10 ng/ml
[3] = test system: SCC25 cells; assay: Total cell number, CellTiterGLO assay, SCC25; type: cell-based, human; details: 3-30 μM; combinations each at 10 μM; 4 or 7 days
Procedure: (§1) FIGS. 9A-F. SSTN treatment of normal (nontransformed) epithelial cells versus carcinoma (transformed) cells. Cells are plated for one day, then treated with either 3-30 μM […] (SSTN-I), 3-30 μM […] (SSTN-E), 3-30 μM SSTNHER2 (SSTN-H) or combinations of the three peptides, each at 10 μM to test their additive effect. […] The treatment times are chosen to reflect only modest effects of the peptides used singly, so that the more pronounced effect of peptides used in combination can still be observed. Treatment for longer times leads to significant cell death observed even with single peptides alone. (FIG. 9A) HaCat human keratinocytes, an example of a normal stratified epithelium, (FIG. 9B) UM-SCC47 cells, a squamous cell carcinoma derived from the tongue of a patient (a stratrified epithelium), (FIG. 9C) SCC25 cells, another squamous cell carcinoma from the tongue of a patient), (FIG. 9D) MCF10A cells, a normal human breast epithelium, (FIG. 9E) MDA-MB-468 cells, a triple-negative (TN) breast carcinoma, and (FIG. 9F) SKBr3 cells, a HER2+ human breast carcinoma. Note that all four carcinomas are inhibited by […], and this is enhanced when […] is combined with the other SSTN peptides, leading to obvious cell death (e.g., the number of cells at the end of the experiment are less than at the beginning).
(§2) Apoptosis assay. […]

[4] = test system: MCF10A mammary epithelial cells
Procedure: Migration of human MCF10A mammary epithelial cells in response to EGF (10 ng/ml) is tested in 12 hr scratch wound closure assays.
Wound healing assay. HaCat or MCF10A cells grown to confluence on 48 well-plates were starved for 6 hr by serum deprivation followed by introduction of a scratch wound in the monolayer using 200 μl pipette tip. […] To cause EGF-stimulated chemotactic migration that depends on Sdc4, cells were stimulated with EGF (10 ng/ml). Images were acquired using a PlanApo 20 (0.75 numerical aperture) objective and a Photometrics CoolSnap ES camera on a Nikon Eclipse TE2000U microscopy system and wound closure quantified.

[5] = test system: HaCat human keratinocytes; assay: Total cell number, CellTiterGLO assay, HaCat; type: cell-based; details: 3-30 μM; 4 or 7 days; normal epithelium
Procedure: as §1, §2

[6] = test system: MCF10A cells; assay: Total cell number, CellTiterGLO assay, MCF10A; type: cell-based, human; details: 3-30 μM; 4 or 7 days; normal epithelium
Procedure: as §1, §2

[7] = test system: SKBr3 cells; assay: Total cell number, CellTiterGLO assay, SKBr3; type: cell-based, human; details: 3-30 μM; combinations each at 10 μM; 4 or 7 days
Procedure: as §1, §2

[8] = test system: UM-SCC47 cells; assay: Total cell number, CellTiterGLO assay, UM-SCC47; type: cell-based, human; details: 3-30 μM; combinations each at 10 μM; 4 or 7 days
Procedure: as §1, §2

[9] = test system: MDA-MB-468 cells; assay: Total cell number, CellTiterGLO assay, MDA-MB-468; type: cell-based, human; details: 3-30 μM; combinations each at 10 μM; 4 or 7 days
Procedure: as §1, §2

[10] = test system: fibroblasts; details: McFall et al.; cited from earlier work
[11] = target: T1, α6β4 integrin (Homo sapiens, UniProt P16144+P23229); assay: Capture of α6β4 integrin from cell lysates by GST-ectodomain on glutathione beads; type: binding; details: re-probed blot, data not shown
T1 construct: endogenous in cells
T1 sequence (P23229 24-1130): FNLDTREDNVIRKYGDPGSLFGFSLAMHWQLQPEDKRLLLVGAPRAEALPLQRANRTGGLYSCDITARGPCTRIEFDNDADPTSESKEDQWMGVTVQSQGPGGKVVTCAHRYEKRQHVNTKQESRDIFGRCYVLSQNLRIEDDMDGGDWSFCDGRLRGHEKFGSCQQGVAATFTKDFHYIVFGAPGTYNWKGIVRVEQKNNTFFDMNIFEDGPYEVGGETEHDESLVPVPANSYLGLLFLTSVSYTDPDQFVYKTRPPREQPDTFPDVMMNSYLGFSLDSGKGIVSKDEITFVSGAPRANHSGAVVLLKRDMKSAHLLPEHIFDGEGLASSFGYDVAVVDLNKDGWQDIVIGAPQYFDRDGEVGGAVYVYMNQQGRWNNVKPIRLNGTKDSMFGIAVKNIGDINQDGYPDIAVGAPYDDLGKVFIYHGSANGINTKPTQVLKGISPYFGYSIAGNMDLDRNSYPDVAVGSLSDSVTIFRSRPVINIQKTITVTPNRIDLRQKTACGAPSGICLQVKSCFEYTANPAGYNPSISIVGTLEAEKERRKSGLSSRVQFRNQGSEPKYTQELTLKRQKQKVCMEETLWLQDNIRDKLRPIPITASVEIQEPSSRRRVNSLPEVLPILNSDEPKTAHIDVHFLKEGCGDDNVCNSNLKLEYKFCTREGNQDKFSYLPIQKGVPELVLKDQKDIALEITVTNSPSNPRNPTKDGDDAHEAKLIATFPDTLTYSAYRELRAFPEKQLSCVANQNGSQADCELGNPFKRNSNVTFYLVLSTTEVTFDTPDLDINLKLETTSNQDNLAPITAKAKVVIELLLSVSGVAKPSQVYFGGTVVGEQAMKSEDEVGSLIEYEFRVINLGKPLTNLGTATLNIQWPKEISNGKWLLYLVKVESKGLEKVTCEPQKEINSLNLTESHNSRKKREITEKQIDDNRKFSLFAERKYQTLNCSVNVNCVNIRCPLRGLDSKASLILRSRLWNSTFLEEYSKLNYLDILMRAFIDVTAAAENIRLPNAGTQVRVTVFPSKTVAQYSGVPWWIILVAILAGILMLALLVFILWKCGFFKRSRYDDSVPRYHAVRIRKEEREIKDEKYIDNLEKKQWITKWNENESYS
T1 sequence (P23229 942-1130 limits assumed): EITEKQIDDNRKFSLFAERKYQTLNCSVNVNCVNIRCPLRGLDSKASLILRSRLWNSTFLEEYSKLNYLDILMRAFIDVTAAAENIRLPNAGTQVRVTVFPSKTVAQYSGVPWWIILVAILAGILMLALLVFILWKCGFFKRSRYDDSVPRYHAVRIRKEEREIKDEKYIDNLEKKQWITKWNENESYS
T1 sequence (P16144 28-1752 isoform P16144-2 limits assumed): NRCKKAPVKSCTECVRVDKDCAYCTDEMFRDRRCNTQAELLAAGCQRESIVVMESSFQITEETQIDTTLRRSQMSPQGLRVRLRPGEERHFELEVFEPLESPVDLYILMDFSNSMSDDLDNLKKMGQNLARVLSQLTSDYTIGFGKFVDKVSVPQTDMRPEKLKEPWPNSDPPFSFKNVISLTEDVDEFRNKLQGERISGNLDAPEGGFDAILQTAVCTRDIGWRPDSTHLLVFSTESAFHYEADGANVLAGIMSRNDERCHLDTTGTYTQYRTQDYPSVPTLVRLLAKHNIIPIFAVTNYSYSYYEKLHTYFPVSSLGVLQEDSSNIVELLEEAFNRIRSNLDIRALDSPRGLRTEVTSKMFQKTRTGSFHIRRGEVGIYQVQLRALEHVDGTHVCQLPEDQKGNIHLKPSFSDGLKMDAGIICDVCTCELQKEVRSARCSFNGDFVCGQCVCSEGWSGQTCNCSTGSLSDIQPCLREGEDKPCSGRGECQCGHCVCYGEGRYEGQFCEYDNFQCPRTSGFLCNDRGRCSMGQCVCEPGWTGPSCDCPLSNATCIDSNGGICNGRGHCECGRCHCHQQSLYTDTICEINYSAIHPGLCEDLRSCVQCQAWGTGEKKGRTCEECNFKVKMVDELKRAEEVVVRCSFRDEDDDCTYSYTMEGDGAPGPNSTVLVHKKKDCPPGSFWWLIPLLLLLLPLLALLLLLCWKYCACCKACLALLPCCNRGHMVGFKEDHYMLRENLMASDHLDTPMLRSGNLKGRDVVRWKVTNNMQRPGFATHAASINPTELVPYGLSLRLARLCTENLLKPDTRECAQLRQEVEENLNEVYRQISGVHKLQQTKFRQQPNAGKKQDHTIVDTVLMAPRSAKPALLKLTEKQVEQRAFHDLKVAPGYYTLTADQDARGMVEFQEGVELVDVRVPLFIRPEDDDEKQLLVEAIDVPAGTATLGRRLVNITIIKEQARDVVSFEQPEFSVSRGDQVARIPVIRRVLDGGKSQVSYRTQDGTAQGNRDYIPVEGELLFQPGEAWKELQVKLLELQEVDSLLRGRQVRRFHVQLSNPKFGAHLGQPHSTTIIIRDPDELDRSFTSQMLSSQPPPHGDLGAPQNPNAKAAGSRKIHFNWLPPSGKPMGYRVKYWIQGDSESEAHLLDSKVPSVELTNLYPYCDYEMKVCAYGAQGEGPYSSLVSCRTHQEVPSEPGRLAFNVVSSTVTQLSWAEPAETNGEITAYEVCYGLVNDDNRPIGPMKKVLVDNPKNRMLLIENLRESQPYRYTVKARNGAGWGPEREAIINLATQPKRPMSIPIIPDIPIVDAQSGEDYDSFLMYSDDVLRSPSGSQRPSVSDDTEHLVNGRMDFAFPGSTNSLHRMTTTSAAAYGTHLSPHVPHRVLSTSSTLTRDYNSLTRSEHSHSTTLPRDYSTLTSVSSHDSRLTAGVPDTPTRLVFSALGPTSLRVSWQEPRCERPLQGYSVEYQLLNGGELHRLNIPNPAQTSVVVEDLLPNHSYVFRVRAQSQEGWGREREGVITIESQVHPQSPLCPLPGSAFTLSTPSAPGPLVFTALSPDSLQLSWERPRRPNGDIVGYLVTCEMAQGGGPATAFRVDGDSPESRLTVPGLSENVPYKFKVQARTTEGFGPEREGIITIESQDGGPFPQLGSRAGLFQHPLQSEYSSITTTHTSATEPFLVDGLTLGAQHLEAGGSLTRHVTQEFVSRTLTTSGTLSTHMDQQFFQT
Procedure: (§3) Immunoprecipitation. Immunoprecipitations were carried out as described previously (Beauvais et al., 2004; Beauvais et al., 2006). Cells were washed once with washing buffer (50 mM Hepes, 50 mM NaCl and 10 mM EDTA, pH 7.4) and lysed for 20 min on ice in 1% Triton X-100 containing a 1:1000 dilution of protease inhibitor mixture set III (Calbiochem) in washing buffer. Cell debris was removed by centrifugation at 20,000 g for 15 min at 4° C. Lysates or 6×His-tagged β4 cytoplasmic domain (amino acids 1677-1752) were incubated at 4° C. overnight with 100 μl Glutathione Sepharose 4B beads (50% in IP wash buffer), GST-S4CD or GST-S1CD in present or absent of different peptides. Samples were resolved by electrophoresis under reduced conditions on a 15% Laemmli gel, transferred to Immobilon P, and probed with primary antibody followed by an alkaline phosphatase-conjugated secondary antibody. Visualization of immune-reactive bands was performed using ECF reagent (GE Healthcare) and scanned on a Typhoon Trio Variable Mode Imager (GE-Healthcare) in blue fluorescence.
The inventor's prior work has shown that Sdc1 contains a site in its extracellular domain to capture the αvβ3 or αvβ5 integrin and the insulin-like growth factor-1 receptor (IGF1-R) (Beauvais et al., 2009; Beauvais & Rapraeger, 2010). […]

[12] = target: T2, EGFR (Homo sapiens, UniProt P00533); assay: Capture of EGFR from cell lysates by GST-ectodomain on glutathione beads; type: binding; details: lysates of EGF-stimulated A431 cells / HaCat cell lysates, western blot
T2 construct: endogenous in cells
Procedure: (§4) (FIG. 6A) Mouse syndecan chimeras in which their ectodomains are switched are expressed in HaCat cells, then immunoprecipitated with antibodies specific for the mouse syndecan ectodomains. […] Also note that these complexes assemble only upon EGF treatment.
as §3, with “fluorescence. […]” for “fluorescence.”

[13] = target: T3, HER2 (Homo sapiens, UniProt P04626); assay: Capture of HER2 from cell lysates by GST-ectodomain on glutathione beads; type: binding; details: lysates of EGF-stimulated A431 cells; western blot
T3 construct: endogenous in cells
Procedure: as §4
as §3, with “fluorescence. […]” for “fluorescence.”

[14] = test system: MDA-MB-468 breast carcinoma; assay: MDA-MB-468 breast carcinoma subcutaneous tumor growth in nude mice, Alzet pump delivery; type: in vivo, nude (nu/nu) mice; details: 400 μM in pump, 0.25 μL/hr systemic, 8 wks, started 2 weeks after implantation
Procedure: (§5) FIG. 10. S4ED blocks MDA-MB-468 breast carcinoma growth in vivo. Human MDA-MB-468 breast carcinoma cells were implanted subcutaneously on the flank of nude (nu/nu) mice and allowed to grow for 2 weeks to form palpable tumors (dotted blue line indicates size after 2 weeks). At that time, systemic delivery (0.25 μL/hr) of 400 μM recombinant GST-S4ED, GST alone or saline alone (no treatment) was initiated by surgical implantation of Alzet pumps on the behind the shoulder blades of the animals for 4 wks, followed by replacement with pumps containing fresh protein for an additional 4 wks. Tumor size was measured with calipers at 2 week intervals. Error bars denote S.D., 10 tumors/treatment group.
(§6) The inventor has tested the entire recombinant S4ED protein (as a GST-S4ED fusion protein) as an inhibitor against one of these carcinoma cells (the MDA-MB-468 cells) during tumor growth in immunocompromised nude (nu/nu) mice.

[15] = Estimated blood concentration during Alzet pump delivery; type: in vivo, nude (nu/nu) mice; details: 400 μM in the pump
Procedure: as §5, §6

Molecule: 4126-131: synthetic peptide with truncation of amino acids 126-131 at the C-terminus (NHIPERAGSGSQVPTEPKKLEENEVIPKRISPVEESEDV)
reduction of competitive activity, synthetic peptide variants versus peptide 87-131 ([1]; 0.1 to 30 μM, 20 ng/ml EGF, FIG. 8C): at least 100 fold

Molecule: COc1cc(/C=C(\C#N)C(N)=O)cc(CSc2nc3ccccc3s2)c1O [AG825]
effect on EGF-induced migration / wound closure (in words) ([2]; 10 μM AG825): not inhibited; also recorded: not by the tyrphostin AG825

Molecule: COc1cc2ncnc(Nc3ccc(F)c(Cl)c3)c2cc1OCCCN1CCOCC1 [Iressa]
effect on EGF-induced migration / wound closure (in words) ([2]; 1 μM Iressa): does block wound closure; also recorded: blocked

Molecule: NHIPERAGSGSQVPTEPKKLEENEVIPKRISPVEESEDVSNKVSM
effect on EGF-induced migration / wound closure (in words) [2]: blocks
growth/survival (total cell number) [3]: do target growth/survival mechanisms; also recorded: inhibited
IC50 ([4]; 12 h): 100 to 300 nM
effect on EGF-stimulated migration/chemotaxis (in words) ([4]; EGF 10 ng/ml, scratch wound closure): blocks
growth or survival (total cell number) [5]: no effect
growth or survival (total cell number) [6]: no effect
growth/survival (total cell number) [7]: do target growth/survival mechanisms; also recorded: inhibited
growth/survival (total cell number) [8]: do target growth/survival mechanisms; also recorded: inhibited
growth/survival (total cell number) [9]: do target growth/survival mechanisms; also recorded: inhibited

Molecule: S4ED98-131: truncated Sdc4 ectodomain, amino acids 98-131 (QVPTEPKKLEENEVIPKRISPVEESEDVSNKVSM)
loss of activity versus S4ED78-131 as competitor for cell adhesion [10]: 100 fold
competitive activity [1]: ca. 10%

Molecule: S4ED 78-118: truncated Sdc4 ectodomain, amino acids 78-118 (VVHPLVPLDNHIPERAGSGSQVPTEPKKLEENEVIPKRISP)
activity as competitor for cell adhesion to full-length S4ED (in words) [10]: completely inactive
competitive activity [1]: ca. 10%

capture of α6β4 integrin [11]: also captured
capture of EGFR [12]: captures
capture of EGFR ([12]; listed as S4ED): captures only EGFR
capture of HER2 [13]: captures only EGFR
B1: GST-S4ED: recombinant Sdc4 ectodomain GST fusion protein (protein)
chain: ESIRETEVIDPQDLLEGRYFSGALPDDEDVVGPGQESDDFELSGSGDLDDLEDSMIGPEVVHPLVPLDNHIPERAGSGSQVPTEPKKLEENEVIPKRISPVEESEDVSNKVSMSSTVQGSNIFERTE
modifications: left off: a dimerising Fc or GST
notes: recombinant Sdc4 ectodomain GST fusion protein
block of EGF-stimulated migration ([4]; 10 μM, EGF 10 ng/ml, 12 hr scratch wound closure): 80%
tumor growth [14]: tumor growth leveling off
tumor growth ([14]; listed as S4ED): blocks
estimated concentration in the blood [15]: 2 to 3 µM
